Assay results from the kinase profiling compilation of Christmann-Franck et al. (2016).

How the values were obtained:
Assay in all cases: split-luciferase competition binding
[1] = biological target: AKT1 (human) (UniProt P31749); settings: compound 10.0 µM
[2] = biological target: AKT2 (human) (UniProt P31751); settings: compound 10.0 µM
[3] = biological target: AKT3 (human) (UniProt Q9Y243); settings: compound 10.0 µM
[4] = biological target: AURKA (human) (UniProt O14965); settings: compound 10.0 µM
Sequence of AURKA (human) (O14965 whole entry, looked up): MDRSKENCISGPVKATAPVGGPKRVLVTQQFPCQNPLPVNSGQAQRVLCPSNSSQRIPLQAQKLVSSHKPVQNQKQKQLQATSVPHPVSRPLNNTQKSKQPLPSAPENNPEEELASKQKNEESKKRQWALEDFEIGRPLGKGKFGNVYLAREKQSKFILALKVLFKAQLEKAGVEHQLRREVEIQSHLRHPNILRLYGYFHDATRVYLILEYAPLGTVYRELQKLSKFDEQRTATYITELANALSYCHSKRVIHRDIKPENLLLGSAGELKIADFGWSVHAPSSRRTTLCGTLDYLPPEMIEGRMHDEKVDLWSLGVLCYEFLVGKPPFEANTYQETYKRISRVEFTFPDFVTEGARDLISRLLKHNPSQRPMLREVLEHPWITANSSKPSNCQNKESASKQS

[5] = biological target: AURKB (human) (UniProt Q96GD4); settings: compound 10.0 µM
Sequence of AURKB (human) (Q96GD4 whole entry, looked up): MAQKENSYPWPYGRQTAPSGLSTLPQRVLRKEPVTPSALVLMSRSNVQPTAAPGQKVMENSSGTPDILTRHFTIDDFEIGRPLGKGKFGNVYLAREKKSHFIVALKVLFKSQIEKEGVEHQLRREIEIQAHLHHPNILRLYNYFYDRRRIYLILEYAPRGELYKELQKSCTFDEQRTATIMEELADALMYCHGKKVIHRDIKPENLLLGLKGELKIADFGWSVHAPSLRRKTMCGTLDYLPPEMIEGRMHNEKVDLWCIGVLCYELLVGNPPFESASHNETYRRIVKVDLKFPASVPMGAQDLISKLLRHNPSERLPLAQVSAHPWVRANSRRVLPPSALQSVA

[6] = biological target: AURKC (human) (UniProt Q9UQB9); settings: compound 10.0 µM
[7] = biological target: DMPK (human) (UniProt Q09013); settings: compound 10.0 µM
[8] = biological target: PDPK1 (human) (UniProt O15530); settings: compound 10.0 µM
[9] = biological target: PKN1 (human) (UniProt Q16512); settings: compound 10.0 µM
Sequence of PKN1 (human) (Q16512 whole entry, looked up): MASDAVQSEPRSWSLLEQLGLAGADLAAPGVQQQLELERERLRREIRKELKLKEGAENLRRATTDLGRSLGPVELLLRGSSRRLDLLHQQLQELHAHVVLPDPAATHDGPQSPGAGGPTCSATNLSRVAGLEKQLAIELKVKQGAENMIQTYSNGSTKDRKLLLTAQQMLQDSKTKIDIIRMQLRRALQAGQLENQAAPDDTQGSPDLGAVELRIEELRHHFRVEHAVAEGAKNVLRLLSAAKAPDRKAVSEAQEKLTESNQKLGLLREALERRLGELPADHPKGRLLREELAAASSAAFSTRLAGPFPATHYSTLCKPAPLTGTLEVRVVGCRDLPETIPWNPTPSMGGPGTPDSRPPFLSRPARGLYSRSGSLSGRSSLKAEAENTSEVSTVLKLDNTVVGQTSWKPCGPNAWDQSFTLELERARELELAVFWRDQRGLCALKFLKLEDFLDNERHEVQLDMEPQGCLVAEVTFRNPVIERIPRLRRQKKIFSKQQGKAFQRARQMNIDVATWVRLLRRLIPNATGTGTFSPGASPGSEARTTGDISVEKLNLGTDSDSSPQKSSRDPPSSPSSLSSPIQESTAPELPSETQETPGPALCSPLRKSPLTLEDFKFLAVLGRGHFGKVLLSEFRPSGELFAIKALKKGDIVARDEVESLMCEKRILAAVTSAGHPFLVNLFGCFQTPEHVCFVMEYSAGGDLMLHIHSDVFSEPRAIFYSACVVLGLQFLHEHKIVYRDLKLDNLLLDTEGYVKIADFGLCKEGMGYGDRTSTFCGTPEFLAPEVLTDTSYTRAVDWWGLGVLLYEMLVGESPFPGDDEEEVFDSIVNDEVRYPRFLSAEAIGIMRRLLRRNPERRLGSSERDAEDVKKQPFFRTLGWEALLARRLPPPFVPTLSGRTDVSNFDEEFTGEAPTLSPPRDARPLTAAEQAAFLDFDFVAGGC

[10] = test system: PRKACA (mouse); settings: compound 10.0 µM; accession and sequence are those of the human protein
[11] = biological target: PRKACB (human) (UniProt P22694); settings: compound 10.0 µM
[12] = biological target: PRKCD (human) (UniProt Q05655); settings: compound 10.0 µM
[13] = biological target: PRKCE (human) (UniProt Q02156); settings: compound 10.0 µM
[14] = biological target: PRKCG (human) (UniProt P05129); settings: compound 10.0 µM
[15] = biological target: PRKCH (human) (UniProt P24723); settings: compound 10.0 µM
Sequence of PRKCH (human) (P24723 whole entry, looked up): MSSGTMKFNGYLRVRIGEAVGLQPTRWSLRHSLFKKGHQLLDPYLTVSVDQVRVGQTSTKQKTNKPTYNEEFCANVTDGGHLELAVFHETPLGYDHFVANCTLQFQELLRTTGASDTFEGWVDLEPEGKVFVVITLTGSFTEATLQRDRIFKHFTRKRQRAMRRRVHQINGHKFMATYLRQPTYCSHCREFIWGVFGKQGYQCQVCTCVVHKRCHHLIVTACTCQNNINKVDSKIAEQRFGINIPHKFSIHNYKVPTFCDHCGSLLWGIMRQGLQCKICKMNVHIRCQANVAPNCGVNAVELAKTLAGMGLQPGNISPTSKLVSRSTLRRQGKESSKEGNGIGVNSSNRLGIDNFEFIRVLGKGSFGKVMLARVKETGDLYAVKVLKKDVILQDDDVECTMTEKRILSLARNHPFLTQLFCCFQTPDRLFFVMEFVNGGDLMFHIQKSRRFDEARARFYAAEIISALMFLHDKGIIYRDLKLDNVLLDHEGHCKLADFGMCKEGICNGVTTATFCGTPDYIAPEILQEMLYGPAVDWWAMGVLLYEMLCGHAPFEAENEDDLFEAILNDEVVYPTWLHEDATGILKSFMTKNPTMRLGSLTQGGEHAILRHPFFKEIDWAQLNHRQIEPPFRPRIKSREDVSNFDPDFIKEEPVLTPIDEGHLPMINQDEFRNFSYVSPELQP

[16] = biological target: PRKCI (human) (UniProt P41743); settings: compound 10.0 µM
[17] = biological target: PRKCQ (human) (UniProt Q04759); settings: compound 10.0 µM
Sequence of PRKCQ (human) (Q04759 whole entry, looked up): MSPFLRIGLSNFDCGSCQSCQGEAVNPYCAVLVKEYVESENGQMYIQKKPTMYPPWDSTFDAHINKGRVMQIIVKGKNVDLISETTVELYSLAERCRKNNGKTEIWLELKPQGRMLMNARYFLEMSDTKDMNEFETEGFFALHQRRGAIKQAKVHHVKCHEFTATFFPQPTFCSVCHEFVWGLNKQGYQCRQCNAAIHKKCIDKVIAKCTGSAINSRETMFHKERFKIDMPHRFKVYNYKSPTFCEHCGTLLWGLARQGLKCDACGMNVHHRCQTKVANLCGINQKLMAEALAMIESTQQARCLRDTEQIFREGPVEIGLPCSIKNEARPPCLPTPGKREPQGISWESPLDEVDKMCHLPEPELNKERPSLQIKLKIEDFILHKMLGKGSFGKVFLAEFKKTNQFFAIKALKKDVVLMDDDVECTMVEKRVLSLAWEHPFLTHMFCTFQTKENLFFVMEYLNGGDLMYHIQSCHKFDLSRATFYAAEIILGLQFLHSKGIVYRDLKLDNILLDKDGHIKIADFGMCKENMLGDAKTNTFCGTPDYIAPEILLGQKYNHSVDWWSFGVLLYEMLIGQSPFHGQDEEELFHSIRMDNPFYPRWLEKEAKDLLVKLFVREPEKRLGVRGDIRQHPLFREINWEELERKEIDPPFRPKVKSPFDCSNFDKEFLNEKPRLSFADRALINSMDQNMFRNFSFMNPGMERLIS

[18] = biological target: PRKX (human) (UniProt P51817); settings: compound 10.0 µM
[19] = biological target: RPS6KA1 KD1 (human) (UniProt Q15418); settings: compound 10.0 µM
Sequence of RPS6KA1 KD1 (human) (Q15418 whole entry, looked up): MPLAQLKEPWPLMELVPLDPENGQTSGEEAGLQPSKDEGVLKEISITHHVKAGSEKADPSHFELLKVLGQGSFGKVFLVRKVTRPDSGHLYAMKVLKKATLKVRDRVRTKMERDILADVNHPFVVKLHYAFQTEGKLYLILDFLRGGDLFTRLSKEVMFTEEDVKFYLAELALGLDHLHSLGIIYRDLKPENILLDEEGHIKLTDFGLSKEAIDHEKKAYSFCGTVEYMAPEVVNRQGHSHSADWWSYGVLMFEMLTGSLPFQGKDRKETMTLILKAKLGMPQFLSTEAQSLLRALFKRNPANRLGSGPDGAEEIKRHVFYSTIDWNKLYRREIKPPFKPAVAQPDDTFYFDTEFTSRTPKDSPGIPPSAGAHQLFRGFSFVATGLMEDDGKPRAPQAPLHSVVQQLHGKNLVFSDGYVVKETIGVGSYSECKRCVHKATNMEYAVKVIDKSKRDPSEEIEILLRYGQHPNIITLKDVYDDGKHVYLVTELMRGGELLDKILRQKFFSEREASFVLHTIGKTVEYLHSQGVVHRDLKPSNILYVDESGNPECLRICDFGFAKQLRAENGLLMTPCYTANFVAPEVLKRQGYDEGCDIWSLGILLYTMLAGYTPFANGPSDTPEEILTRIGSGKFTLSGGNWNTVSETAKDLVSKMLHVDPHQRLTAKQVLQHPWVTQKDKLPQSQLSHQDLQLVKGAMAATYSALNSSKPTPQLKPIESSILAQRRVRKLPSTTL

[20] = biological target: RPS6KA2 KD1 (human) (UniProt Q15349); settings: compound 10.0 µM
[21] = biological target: RPS6KA3 KD1 (human) (UniProt P51812); settings: compound 10.0 µM
[22] = biological target: RPS6KA4 KD1 (human) (UniProt O75676); settings: compound 10.0 µM
[23] = biological target: RPS6KA5 KD1 (human) (UniProt O75582); settings: compound 10.0 µM
[24] = biological target: RPS6KA6 KD1 (human) (UniProt Q9UK32); settings: compound 10.0 µM
[25] = biological target: SGK2 (human) (UniProt Q9HBY8); settings: compound 10.0 µM
[26] = biological target: SGK3 (human) (UniProt Q96BR1); settings: compound 10.0 µM
Sequence of SGK3 (human) (Q96BR1 whole entry, looked up): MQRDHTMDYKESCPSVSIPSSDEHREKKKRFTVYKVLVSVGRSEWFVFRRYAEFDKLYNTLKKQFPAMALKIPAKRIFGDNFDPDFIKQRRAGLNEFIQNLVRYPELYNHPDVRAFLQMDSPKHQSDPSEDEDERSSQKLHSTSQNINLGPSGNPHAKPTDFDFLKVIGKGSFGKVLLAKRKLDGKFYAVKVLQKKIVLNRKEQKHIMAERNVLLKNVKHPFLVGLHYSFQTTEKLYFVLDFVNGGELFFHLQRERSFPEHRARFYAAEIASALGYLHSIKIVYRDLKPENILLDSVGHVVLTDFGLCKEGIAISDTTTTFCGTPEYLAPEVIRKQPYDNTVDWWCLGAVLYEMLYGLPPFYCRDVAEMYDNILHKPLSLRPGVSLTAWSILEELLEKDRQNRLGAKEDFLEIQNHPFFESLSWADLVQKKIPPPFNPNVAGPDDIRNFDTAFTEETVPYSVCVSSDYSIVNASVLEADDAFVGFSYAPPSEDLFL

[27] = biological target: STK32B (human) (UniProt Q9NY57); settings: compound 10.0 µM

Sequence of AKT3 (human) (Q9Y243 whole entry, looked up): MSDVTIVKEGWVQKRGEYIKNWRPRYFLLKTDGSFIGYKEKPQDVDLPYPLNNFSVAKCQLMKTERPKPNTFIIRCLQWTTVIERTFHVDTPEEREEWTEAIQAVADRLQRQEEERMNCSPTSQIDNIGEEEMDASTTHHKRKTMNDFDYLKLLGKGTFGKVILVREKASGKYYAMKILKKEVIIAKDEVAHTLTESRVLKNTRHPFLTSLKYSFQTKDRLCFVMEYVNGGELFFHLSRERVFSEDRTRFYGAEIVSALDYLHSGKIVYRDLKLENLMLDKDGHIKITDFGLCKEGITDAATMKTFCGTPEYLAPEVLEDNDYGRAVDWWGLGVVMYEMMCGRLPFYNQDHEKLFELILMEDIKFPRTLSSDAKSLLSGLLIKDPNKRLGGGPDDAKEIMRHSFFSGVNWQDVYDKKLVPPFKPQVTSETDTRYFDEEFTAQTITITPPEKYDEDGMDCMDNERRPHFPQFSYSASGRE

## COc1nccc(-c2c(-c3ccc(F)cc3)ncn2[C@H]2CC[C@H](O)CC2)n1
[1]
  inhibition: 0%
[2]
  inhibition: 0%
[3]
  inhibition: 0%
[4]
  inhibition: 4%
[5]
  inhibition: 6%
[6]
  inhibition: 0%
[7]
  inhibition: 0%
[8]
  inhibition: 0%
[9]
  inhibition: 12%
[10]
  inhibition: 0%
[11]
  inhibition: 1%
[12]
  inhibition: 6%
[13]
  inhibition: 0%
[14]
  inhibition: 9%
[15]
  inhibition: 0%
[16]
  inhibition: 0%
[17]
  inhibition: 6%
[18]
  inhibition: 11%
[19]
  inhibition: 0%
[20]
  inhibition: 0%
[21]
  inhibition: 0%
[22]
  inhibition: 0%
[23]
  inhibition: 0%
[24]
  inhibition: 0%
[25]
  inhibition: 0%
[26]
  inhibition: 0%
[27]
  inhibition: 40%

## CC(C)[C@H](CO)Nc1nc(Nc2cc(N)cc(Cl)c2)c2ncn(C(C)C)c2n1
[1]
  inhibition: 0%
[2]
  inhibition: 0%
[3]
  inhibition: 0%
[4]
  inhibition: 0%
[5]
  inhibition: 0%
[6]
  inhibition: 0%
[7]
  inhibition: 7%
[8]
  inhibition: 0%
[9]
  inhibition: 0%
[10]
  inhibition: 13%
[11]
  inhibition: 1%
[12]
  inhibition: 6%
[13]
  inhibition: 6%
[14]
  inhibition: 0%
[15]
  inhibition: 10%
[16]
  inhibition: 0%
[17]
  inhibition: 29%
[18]
  inhibition: 6%
[19]
  inhibition: 83%
[20]
  inhibition: 79%
[21]
  inhibition: 77%
[22]
  inhibition: 39%
[23]
  inhibition: 18%
[24]
  inhibition: 55%
[25]
  inhibition: 2%
[26]
  inhibition: 5%
[27]
  inhibition: 20%

## CS(=O)c1ccc(-c2nc(-c3ccc(F)cc3)c(-c3ccncc3)[nH]2)cc1 (configuration not stated)
[1]
  inhibition: 11%
[2]
  inhibition: 0%
[3]
  inhibition: 0%
[4]
  inhibition: 6%
[5]
  inhibition: 0%
[6]
  inhibition: 0%
[7]
  inhibition: 0%
[8]
  inhibition: 3%
[9]
  inhibition: 0%
[10]
  inhibition: 0%
[11]
  inhibition: 0%
[12]
  inhibition: 0%
[13]
  inhibition: 0%
[14]
  inhibition: 0%
[15]
  inhibition: 5%
[16]
  inhibition: 0%
[17]
  inhibition: 0%
[18]
  inhibition: 0%
[19]
  inhibition: 0%
[20]
  inhibition: 3%
[21]
  inhibition: 2%
[22]
  inhibition: 0%
[23]
  inhibition: 0%
[24]
  inhibition: 0%
[25]
  inhibition: 0%
[26]
  inhibition: 0%
[27]
  inhibition: 36%

## CS(=O)(=O)CCNCc1nc(-c2ccc3ncnc(Nc4ccc(OCc5cccc(F)c5)c(Cl)c4)c3c2)cs1
[1]
  inhibition: 16%
[2]
  inhibition: 0%
[3]
  inhibition: 0%
[4]
  inhibition: 13%
[5]
  inhibition: 0%
[6]
  inhibition: 21%
[7]
  inhibition: 5%
[8]
  inhibition: 0%
[9]
  inhibition: 0%
[10]
  inhibition: 8%
[11]
  inhibition: 5%
[12]
  inhibition: 0%
[13]
  inhibition: 14%
[14]
  inhibition: 10%
[15]
  inhibition: 6%
[16]
  inhibition: 0%
[17]
  inhibition: 0%
[18]
  inhibition: 7%
[19]
  inhibition: 14%
[20]
  inhibition: 0%
[21]
  inhibition: 0%
[22]
  inhibition: 6%
[23]
  inhibition: 0%
[24]
  inhibition: 5%
[25]
  inhibition: 11%
[26]
  inhibition: 6%
[27]
  inhibition: 9%

## Cc1cc(F)c(Nc2ncnc3cc(OCc4ccccc4)ccc23)cc1O
[1]
  inhibition: 0%
[2]
  inhibition: 0%
[3]
  inhibition: 0%
[4]
  inhibition: 0%
[5]
  inhibition: 1%
[6]
  inhibition: 0%
[7]
  inhibition: 0%
[8]
  inhibition: 2%
[9]
  inhibition: 0%
[10]
  inhibition: 2%
[11]
  inhibition: 0%
[12]
  inhibition: 0%
[13]
  inhibition: 6%
[14]
  inhibition: 1%
[15]
  inhibition: 0%
[16]
  inhibition: 5%
[17]
  inhibition: 0%
[18]
  inhibition: 1%
[19]
  inhibition: 0%
[20]
  inhibition: 0%
[21]
  inhibition: 0%
[22]
  inhibition: 0%
[23]
  inhibition: 0%
[24]
  inhibition: 0%
[25]
  inhibition: 0%
[26]
  inhibition: 0%
[27]
  inhibition: 16%

## O=C1c2ccccc2-c2n[nH]c3cccc1c23
[1]
  inhibition: 0%
[2]
  inhibition: 0%
[3]
  inhibition: 0%
[4]
  inhibition: 0%
[5]
  inhibition: 6%
[6]
  inhibition: 0%
[7]
  inhibition: 0%
[8]
  inhibition: 0%
[9]
  inhibition: 4%
[10]
  inhibition: 0%
[11]
  inhibition: 0%
[12]
  inhibition: 0%
[13]
  inhibition: 0%
[14]
  inhibition: 0%
[15]
  inhibition: 0%
[16]
  inhibition: 0%
[17]
  inhibition: 0%
[18]
  inhibition: 0%
[19]
  inhibition: 0%
[20]
  inhibition: 0%
[21]
  inhibition: 0%
[22]
  inhibition: 0%
[23]
  inhibition: 0%
[24]
  inhibition: 0%
[25]
  inhibition: 2%
[26]
  inhibition: 0%
[27]
  inhibition: 0%
